From patent US20240002344A1, “COMPOUNDS, COMPOSITIONS AND METHODS FOR HISTONE LYSINE DEMETHYLASE INHIBITION” (FibroGen, Inc., priority 2020, published 2024)

What was measured:
recombinant human KDM5B = molecular target: T1, recombinant human KDM5B (Homo sapiens, UniProt Q9UGL1); test: 14CO2 capture enzymatic assay (decarboxylation of [1-14C] αKG), KDM5B; assay type: biochemical; conditions: 10 μM [1-14C] αKG, 90 μM non-labeled αKG, 50 μM peptide substrate, 37° C., 1 hour, final 1% DMSO
T1 sequence (Q9UGL1 374-755 limits assumed): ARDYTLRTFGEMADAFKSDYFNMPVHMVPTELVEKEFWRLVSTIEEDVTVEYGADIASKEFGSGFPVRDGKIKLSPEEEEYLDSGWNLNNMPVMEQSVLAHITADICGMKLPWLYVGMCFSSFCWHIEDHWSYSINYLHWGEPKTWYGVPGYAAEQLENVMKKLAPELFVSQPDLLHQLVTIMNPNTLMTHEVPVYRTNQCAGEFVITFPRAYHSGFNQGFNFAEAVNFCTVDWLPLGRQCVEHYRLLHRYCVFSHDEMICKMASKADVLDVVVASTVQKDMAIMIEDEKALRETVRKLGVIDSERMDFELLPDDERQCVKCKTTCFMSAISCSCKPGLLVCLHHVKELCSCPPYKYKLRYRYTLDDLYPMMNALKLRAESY
Method: (§1) Enzymatic activity was determined based on the capture of ^14CO2 released by the decarboxylation of [1-^14C] αKG (Zhang et al., Anal. Biochem., 1998, vol. 271, pp. 137-142). [1-^14C]alphaketoglutarate (αKG) was from Perkin-Elmer, H3K4me3 and H3K9me3 peptides were from Mimotopes. All other reagents were from Sigma. Reaction mixtures included the following components: Fe(SO4), [1-^14C] αKG, non-labeled αKG, ascorbate, peptide-substrate (H3K4me3: H-ARTK(me3)QTARKSTGGKAPRKQLA-OH. H3K9me3: H-ARTKQTARK(me3)STGGKAPRKQLA-OH), NaCl, Tween-20 and catalase in 25 mM HEPES buffer, pH 7.4. The enzymatic reactions were initiated by addition of recombinant human KDM5B or KDM4A enzyme (truncated enzyme produced in house by method and using sequence disclosed in Ng et al, Nature 448:87-91, 2007). The reactions were performed in 96-well microtiter plates (20 μL total assay volume) (Greiner #650201). ^14CO2 was captured on a glass fiber filter paper (Cat. No. IH-201-A, Inotech Biosystems International) soaked with saturated Ba(OH)2 that was laid on top of the 96-well plate. A microtiter plate sealer film (Thermal Seal cat #T7961100) was applied to the filter paper. The plate and filter paper were sandwiched between two custom made aluminum plates (Advanced Component Manufacturing, Burlingame, CA) and transferred to a 37° C. oven and allowed to incubate for 1 hour. After incubation, the filter paper was dried in a 103° C. oven for 40-60 minutes. To determine percent turnover, aliquots of the reaction mixture were spotted onto the filter paper and the filter paper was dried again. The dry filter paper was exposed to a storage phosphor screen for 24-72 hours and the images recorded using a Typhoon FLA 7000 Imager (Amersham Biosciences, Piscataway, NJ). Integrated spot intensities corresponding to control reactions lacking the enzyme were subtracted from integration results for enzyme containing reactions and data were converted to enzyme dependent percent ^14CO2 release. All enzymatic reactions were run in duplicates.
(§2) For IC50 determination, a 3-fold dilution series of compound was prepared and added to the reaction mixture (final 1% DMSO, v/v) prior to enzyme addition. The final reagent concentrations were: 10 μM Fe(SO4), 10 μM [1-^14C] αKG, 90 μM non-labeled αKG, 2 mM ascorbate, 50 μM peptide substrate, 75 mM NaCl, 0.01% Tween-20 and ˜2 units/μL catalase. IC50s were determined by non-linear fitting using Grafit version 7.0.

recombinant human KDM4A = molecular target: T2, recombinant human KDM4A (Homo sapiens, UniProt O75164); test: 14CO2 capture enzymatic assay (decarboxylation of [1-14C] αKG), KDM4A; assay type: biochemical; conditions: 10 μM [1-14C] αKG, 90 μM non-labeled αKG, 50 μM peptide substrate, 37° C., 1 hour, final 1% DMSO
T2 construct: made in house
T2 sequence (O75164 1-359 limits assumed): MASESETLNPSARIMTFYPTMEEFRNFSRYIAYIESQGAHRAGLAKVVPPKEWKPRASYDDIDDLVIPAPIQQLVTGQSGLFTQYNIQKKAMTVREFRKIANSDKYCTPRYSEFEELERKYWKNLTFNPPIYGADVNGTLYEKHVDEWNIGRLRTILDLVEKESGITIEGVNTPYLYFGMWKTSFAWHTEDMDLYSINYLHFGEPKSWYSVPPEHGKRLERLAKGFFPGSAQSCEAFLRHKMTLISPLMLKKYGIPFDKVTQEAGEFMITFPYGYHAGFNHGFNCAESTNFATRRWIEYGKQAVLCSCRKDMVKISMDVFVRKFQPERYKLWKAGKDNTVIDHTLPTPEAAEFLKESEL
Method: as §1, §2

IC50 (recombinant human KDM5B) [nM] | IC50 (recombinant human KDM4A) [nM] | Compound
300 | > 40000 | N#Cc1cc(Cc2ccc(OC(F)(F)F)cc2)nc(C(=O)CCC(=O)O)c1O [Example 47, 4-[4-Cyano-3-hydroxy-6-(4-trifluoromethoxy-benzyl)-pyridin-2-yl]-4-oxo-butyric acid]
310 | > 40000 | N#Cc1cc(Cc2cccc(OC(F)(F)F)c2)nc(C(=O)CCC(=O)O)c1O [Example 48, 4-[4-Cyano-3-hydroxy-6-(3-trifluoromethoxy-benzyl)-pyridin-2-yl]-4-oxo-butyric acid]
270 | > 40000 | N#Cc1cc(Cc2ccccc2OC(F)(F)F)nc(C(=O)CCC(=O)O)c1O [Example 49, 4-[4-Cyano-3-hydroxy-6-(2-trifluoromethoxy-benzyl)-pyridin-2-yl]-4-oxo-butyric acid]
390 | > 40000 | N#Cc1cc(Cc2ccc(-c3ccccc3)cc2)nc(C(=O)CCC(=O)O)c1O [Example 50, 4-(6-Biphenyl-4-ylmethyl-4-cyano-3-hydroxy-pyridin-2-yl)-4-oxo-butyric acid]
200 | > 40000 | N#Cc1cc(Cc2cccc(-c3ccccc3)c2)nc(C(=O)CCC(=O)O)c1O [Example 51, 4-(6-Biphenyl-3-ylmethyl-4-cyano-3-hydroxy-pyridin-2-yl)-4-oxo-butyric acid]
300 | > 40000 | N#Cc1cc(Cc2ccccc2-c2ccccc2)nc(C(=O)CCC(=O)O)c1O [Example 52, 4-(6-Biphenyl-2-ylmethyl-4-cyano-3-hydroxy-pyridin-2-yl)-4-oxo-butyric acid]
250 | > 40000 | N#Cc1cc(Cc2c(F)cccc2F)nc(C(=O)CCC(=O)O)c1O [Example 53, 4-[4-Cyano-6-(2,6-difluoro-benzyl)-3-hydroxy-pyridin-2-yl]-4-oxo-butyric acid]
230 | 4900 | Cc1cccc(C)c1Cc1cc(C#N)c(O)c(C(=O)CCC(=O)O)n1 [Example 54, 4-[4-Cyano-6-(2,6-dimethyl-benzyl)-3-hydroxy-pyridin-2-yl]-4-oxo-butyric acid]
220 | 34000 | N#Cc1cc(Cc2c(F)cc(F)cc2F)nc(C(=O)CCC(=O)O)c1O [Example 55, 4-[4-Cyano-3-hydroxy-6-(2,4,6-trifluoro-benzyl)-pyridin-2-yl]-4-oxo-butyric acid]
290 | > 40000 | N#Cc1cc(Cc2c(F)ccc(Cl)c2F)nc(C(=O)CCC(=O)O)c1O [Example 56, 4-[6-(3-Chloro-2,6-difluoro-benzyl)-4-cyano-3-hydroxy-pyridin-2-yl]-4-oxo-butyric acid]
270 | 28000 | N#Cc1cc(Cc2c(F)ccc(F)c2F)nc(C(=O)CCC(=O)O)c1O [Example 57, 4-[4-Cyano-3-hydroxy-6-(2,3,6-trifluoro-benzyl)-pyridin-2-yl]-4-oxo-butyric acid]
180 | 16000 | N#Cc1cc(Cc2c(Cl)cccc2C#N)nc(C(=O)CCC(=O)O)c1O [Example 58, 4-[6-(2-Chloro-6-cyano-benzyl)-4-cyano-3-hydroxy-pyridin-2-yl]-4-oxo-butyric acid]
330 | > 40000 | N#Cc1cc(Cc2c(Cl)cccc2C(F)(F)F)nc(C(=O)CCC(=O)O)c1O [Example 59, 4-[6-(2-Chloro-6-trifluoromethyl-benzyl)-4-cyano-3-hydroxy-pyridin-2-yl]-4-oxo-butyric acid]
330 | > 40000 | N#Cc1cc(Cc2c(F)cccc2C(F)(F)F)nc(C(=O)CCC(=O)O)c1O [Example 60, 4-[6-(2-Fluoro-6-trifluoromethyl-benzyl)-4-cyano-3-hydroxy-pyridin-2-yl]-4-oxo-butyric acid]
570 | > 40000 | COc1cccc(C(F)(F)F)c1Cc1cc(C#N)c(O)c(C(=O)CCC(=O)O)n1 [Example 61, 4-[4-Cyano-3-hydroxy-6-(2-methoxy-6-trifluoromethyl-benzyl)-pyridin-2-yl]-4-oxo-butyric acid]
470 | > 40000 | Cc1cccc(C(F)(F)F)c1Cc1cc(C#N)c(O)c(C(=O)CCC(=O)O)n1 [Example 62, 4-[4-Cyano-3-hydroxy-6-(2-methyl-6-trifluoromethyl-benzyl)-pyridin-2-yl]-4-oxo-butyric acid]
240 | 36000 | N#Cc1cc(Cc2cc(Cl)ccc2Cl)nc(C(=O)CCC(=O)O)c1O [Example 63, 4-[4-Cyano-6-(2,5-dichloro-benzyl)-3-hydroxy-pyridin-2-yl]-4-oxo-butyric acid]
260 | > 40000 | N#Cc1cc(Cc2ccc(Cl)cc2Cl)nc(C(=O)CCC(=O)O)c1O [Example 64, 4-[4-Cyano-6-(2,4-dichloro-benzyl)-3-hydroxy-pyridin-2-yl]-4-oxo-butyric acid]
180 | 14000 | N#Cc1cc(Cc2cccc(Cl)c2Cl)nc(C(=O)CCC(=O)O)c1O [Example 65, 4-[4-Cyano-6-(2,3-dichloro-benzyl)-3-hydroxy-pyridin-2-yl]-4-oxo-butyric acid]
240 | > 40000 | N#Cc1cc(-c2ccc(OC(F)(F)F)cc2)nc(C(=O)CCC(=O)O)c1O [Example 67, 4-[4-Cyano-3-hydroxy-6-(4-trifluoromethoxy-phenyl)-pyridin-2-yl]-4-oxo-butyric acid]
280 | > 40000 | N#Cc1cc(-c2cccc3ccccc23)nc(C(=O)CCC(=O)O)c1O [Example 68, 4-(4-Cyano-3-hydroxy-6-naphthalen-1-yl-pyridin-2-yl)-4-oxo-butyric acid]
150 | > 40000 | N#Cc1cc(-c2ccccc2F)nc(C(=O)CCC(=O)O)c1O [Example 69, 4-[4-Cyano-6-(2-fluoro-phenyl)-3-hydroxy-pyridin-2-yl]-4-oxo-butyric acid]
300 | > 40000 | N#Cc1cc(-c2ccccc2Cl)nc(C(=O)CCC(=O)O)c1O [Example 70, 4-[6-(2-Chloro-phenyl)-4-cyano-3-hydroxy-pyridin-2-yl]-4-oxo-butyric acid]
310 | > 40000 | Cc1ccccc1-c1cc(C#N)c(O)c(C(=O)CCC(=O)O)n1 [Example 71, 4-(4-Cyano-3-hydroxy-6-o-tolyl-pyridin-2-yl)-4-oxo-butyric acid]
100 | > 40000 | Cc1cccc(-c2cc(C#N)c(O)c(C(=O)CCC(=O)O)n2)c1 [Example 72, 4-(4-Cyano-3-hydroxy-6-m-tolyl-pyridin-2-yl)-4-oxo-butyric acid]
110 | > 40000 | Cc1ccc(-c2cc(C#N)c(O)c(C(=O)CCC(=O)O)n2)cc1 [Example 73, 4-(4-Cyano-3-hydroxy-6-p-tolyl-pyridin-2-yl)-4-oxo-butyric acid]
60 | > 40000 | N#Cc1cc(-c2cccc(-c3ccccc3)c2)nc(C(=O)CCC(=O)O)c1O [Example 74, 4-(6-Biphenyl-3-yl-4-cyano-3-hydroxy-pyridin-2-yl)-4-oxo-butyric acid]
90 | 20000 | N#Cc1cc(-c2ccc(-c3ccccc3)cc2)nc(C(=O)CCC(=O)O)c1O [Example 75, 4-(6-Biphenyl-4-yl-4-cyano-3-hydroxy-pyridin-2-yl)-4-oxo-butyric acid]
